Measured values published in the kinase profiling compilation of Christmann-Franck et al. (2016).

How the values were obtained:
Assay in all cases: radiometric filter-binding kinase assay, Kinase HotSpot
Conditions in all cases: compound 0.5 µM; ATP 10 µM
ABL1 (human) = ABL1 (human) (UniProt P00519)
BRAF (human) = BRAF (human) (UniProt P15056)
CAMK2D (human) = CAMK2D (human) (UniProt Q13557)
CDK5 CDK5R1 p25 (human) = CDK5 CDK5R1 p25 (human) (UniProt Q00535+Q15078)
CHUK (human) = CHUK (human) (UniProt O15111)
CSK (human) = CSK (human) (UniProt P41240)
CSNK1E (human) = CSNK1E (human) (UniProt P49674)
Chain of CSNK1E (human) (P49674 whole entry, looked up): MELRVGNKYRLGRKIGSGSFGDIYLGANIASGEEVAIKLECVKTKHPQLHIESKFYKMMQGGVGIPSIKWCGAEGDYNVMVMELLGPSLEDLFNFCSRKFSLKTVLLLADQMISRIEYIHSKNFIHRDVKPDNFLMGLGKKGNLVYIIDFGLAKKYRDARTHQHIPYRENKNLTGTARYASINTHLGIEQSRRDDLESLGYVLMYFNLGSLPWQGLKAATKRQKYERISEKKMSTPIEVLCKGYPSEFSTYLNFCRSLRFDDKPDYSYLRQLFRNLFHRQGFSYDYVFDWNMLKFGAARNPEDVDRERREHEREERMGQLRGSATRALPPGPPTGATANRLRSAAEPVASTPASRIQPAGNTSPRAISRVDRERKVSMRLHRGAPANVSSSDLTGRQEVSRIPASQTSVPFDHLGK

CSNK2A2 (human) = CSNK2A2 (human) (UniProt P19784)
DYRK1B (human) = DYRK1B (human) (UniProt Q9Y463)
DYRK4 (human) = DYRK4 (human) (UniProt Q9NR20)
EPHB1 (human) = EPHB1 (human) (UniProt P54762)
Chain of EPHB1 (human) (P54762 whole entry, looked up): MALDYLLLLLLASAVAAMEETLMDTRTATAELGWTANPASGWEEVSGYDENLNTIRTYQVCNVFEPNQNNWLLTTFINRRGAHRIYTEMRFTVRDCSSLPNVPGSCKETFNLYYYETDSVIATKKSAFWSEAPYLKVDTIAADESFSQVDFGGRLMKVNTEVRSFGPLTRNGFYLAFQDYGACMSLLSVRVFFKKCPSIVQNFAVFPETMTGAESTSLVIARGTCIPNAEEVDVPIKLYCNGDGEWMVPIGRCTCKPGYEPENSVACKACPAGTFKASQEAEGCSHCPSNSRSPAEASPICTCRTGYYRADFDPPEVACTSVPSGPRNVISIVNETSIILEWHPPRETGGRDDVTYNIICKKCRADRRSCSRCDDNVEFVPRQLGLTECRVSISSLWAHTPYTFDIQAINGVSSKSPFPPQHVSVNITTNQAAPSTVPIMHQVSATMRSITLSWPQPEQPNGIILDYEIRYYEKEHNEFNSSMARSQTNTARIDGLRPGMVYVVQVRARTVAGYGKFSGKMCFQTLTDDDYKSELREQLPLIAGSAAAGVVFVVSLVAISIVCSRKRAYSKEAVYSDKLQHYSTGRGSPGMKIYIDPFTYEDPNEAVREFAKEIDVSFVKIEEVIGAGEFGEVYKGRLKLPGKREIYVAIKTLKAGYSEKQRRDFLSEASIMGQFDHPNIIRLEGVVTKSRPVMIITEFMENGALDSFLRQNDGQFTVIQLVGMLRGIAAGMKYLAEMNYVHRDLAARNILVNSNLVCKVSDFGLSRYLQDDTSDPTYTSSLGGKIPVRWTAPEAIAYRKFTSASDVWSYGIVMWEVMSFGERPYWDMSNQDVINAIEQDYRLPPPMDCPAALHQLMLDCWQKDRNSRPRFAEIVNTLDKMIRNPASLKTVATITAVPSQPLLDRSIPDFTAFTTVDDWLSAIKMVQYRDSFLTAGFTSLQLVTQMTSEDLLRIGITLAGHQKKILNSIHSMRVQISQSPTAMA

IRAK4 (human) = IRAK4 (human) (UniProt Q9NWZ3)
JAK2 JH1 JH2 (human) = JAK2 JH1 JH2 (human) (UniProt O60674)
JAK3 JH1 JH2 (human) = JAK3 JH1 JH2 (human) (UniProt P52333)
MAPK11 (human) = MAPK11 (human) (UniProt Q15759)
MAPK12 (human) = MAPK12 (human) (UniProt P53778)
Chain of MAPK12 (human) (P53778 whole entry, looked up): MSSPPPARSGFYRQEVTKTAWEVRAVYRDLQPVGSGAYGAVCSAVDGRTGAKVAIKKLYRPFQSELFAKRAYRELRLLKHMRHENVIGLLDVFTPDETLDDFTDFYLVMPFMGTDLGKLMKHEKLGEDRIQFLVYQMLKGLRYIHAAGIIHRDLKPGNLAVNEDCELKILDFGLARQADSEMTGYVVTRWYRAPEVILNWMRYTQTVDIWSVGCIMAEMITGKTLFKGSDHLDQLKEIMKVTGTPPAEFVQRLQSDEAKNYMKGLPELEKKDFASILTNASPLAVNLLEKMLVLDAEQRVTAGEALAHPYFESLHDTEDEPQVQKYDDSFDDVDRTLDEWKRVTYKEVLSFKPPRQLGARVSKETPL

MAPK8 (human) = MAPK8 (human) (UniProt P45983)
MAPK9 (human) = MAPK9 (human) (UniProt P45984)
MATK (human) = MATK (human) (UniProt P42679)
OXSR1 (human) = OXSR1 (human) (UniProt O95747)
PAK7 (human) = PAK7 (human) (UniProt Q9P286)
PBK (human) = PBK (human) (UniProt Q96KB5)
Chain of PBK (human) (Q96KB5 whole entry, looked up): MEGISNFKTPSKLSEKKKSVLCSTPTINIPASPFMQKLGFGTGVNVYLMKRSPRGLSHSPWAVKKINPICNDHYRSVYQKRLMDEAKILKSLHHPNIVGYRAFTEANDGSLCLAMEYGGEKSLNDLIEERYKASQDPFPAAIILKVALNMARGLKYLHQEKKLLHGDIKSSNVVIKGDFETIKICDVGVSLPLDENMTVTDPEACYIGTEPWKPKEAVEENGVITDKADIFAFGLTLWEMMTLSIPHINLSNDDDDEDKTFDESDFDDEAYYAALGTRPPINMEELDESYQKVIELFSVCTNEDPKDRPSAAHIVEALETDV

PKN2 (human) = PKN2 (human) (UniProt Q16513)
Chain of PKN2 (human) (Q16513 whole entry, looked up): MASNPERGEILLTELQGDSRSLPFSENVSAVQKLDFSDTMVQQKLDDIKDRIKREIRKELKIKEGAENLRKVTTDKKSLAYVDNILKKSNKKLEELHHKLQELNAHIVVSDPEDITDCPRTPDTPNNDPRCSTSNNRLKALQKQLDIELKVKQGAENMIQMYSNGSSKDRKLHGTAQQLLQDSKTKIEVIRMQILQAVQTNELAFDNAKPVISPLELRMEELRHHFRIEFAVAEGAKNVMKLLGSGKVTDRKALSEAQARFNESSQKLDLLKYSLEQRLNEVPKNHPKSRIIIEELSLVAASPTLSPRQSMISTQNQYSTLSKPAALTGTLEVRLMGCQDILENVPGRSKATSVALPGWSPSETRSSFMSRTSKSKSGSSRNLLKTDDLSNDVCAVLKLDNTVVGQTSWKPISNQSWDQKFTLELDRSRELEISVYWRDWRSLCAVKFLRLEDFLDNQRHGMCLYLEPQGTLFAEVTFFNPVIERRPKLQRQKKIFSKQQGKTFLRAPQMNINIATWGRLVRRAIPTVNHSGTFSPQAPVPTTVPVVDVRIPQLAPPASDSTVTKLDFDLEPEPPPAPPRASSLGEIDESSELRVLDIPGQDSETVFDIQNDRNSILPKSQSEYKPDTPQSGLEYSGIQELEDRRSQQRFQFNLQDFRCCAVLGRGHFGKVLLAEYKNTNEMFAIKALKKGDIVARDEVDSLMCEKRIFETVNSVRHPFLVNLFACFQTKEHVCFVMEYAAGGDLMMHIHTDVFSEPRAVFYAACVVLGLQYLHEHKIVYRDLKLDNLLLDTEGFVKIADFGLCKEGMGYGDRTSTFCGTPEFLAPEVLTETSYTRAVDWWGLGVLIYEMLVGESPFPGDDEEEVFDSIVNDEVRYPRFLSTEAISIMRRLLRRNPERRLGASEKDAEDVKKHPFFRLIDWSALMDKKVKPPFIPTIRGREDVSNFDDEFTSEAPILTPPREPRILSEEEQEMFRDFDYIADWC

PRKCH (human) = PRKCH (human) (UniProt P24723)
PRKCI (human) = PRKCI (human) (UniProt P41743)
PRKD2 (human) = PRKD2 (human) (UniProt Q9BZL6)
PRKX (human) = PRKX (human) (UniProt P51817)
RPS6KA2 KD1 KD2 (human) = RPS6KA2 KD1 KD2 (human) (UniProt Q15349)
RPS6KA3 KD1 KD2 (human) = RPS6KA3 KD1 KD2 (human) (UniProt P51812)
RPS6KA4 KD2 (human) = RPS6KA4 KD2 (human) (UniProt O75676)
SRPK1 (human) = SRPK1 (human) (UniProt Q96SB4)
STK33 (human) = STK33 (human) (UniProt Q9BYT3)
Chain of STK33 (human) (Q9BYT3 whole entry, looked up): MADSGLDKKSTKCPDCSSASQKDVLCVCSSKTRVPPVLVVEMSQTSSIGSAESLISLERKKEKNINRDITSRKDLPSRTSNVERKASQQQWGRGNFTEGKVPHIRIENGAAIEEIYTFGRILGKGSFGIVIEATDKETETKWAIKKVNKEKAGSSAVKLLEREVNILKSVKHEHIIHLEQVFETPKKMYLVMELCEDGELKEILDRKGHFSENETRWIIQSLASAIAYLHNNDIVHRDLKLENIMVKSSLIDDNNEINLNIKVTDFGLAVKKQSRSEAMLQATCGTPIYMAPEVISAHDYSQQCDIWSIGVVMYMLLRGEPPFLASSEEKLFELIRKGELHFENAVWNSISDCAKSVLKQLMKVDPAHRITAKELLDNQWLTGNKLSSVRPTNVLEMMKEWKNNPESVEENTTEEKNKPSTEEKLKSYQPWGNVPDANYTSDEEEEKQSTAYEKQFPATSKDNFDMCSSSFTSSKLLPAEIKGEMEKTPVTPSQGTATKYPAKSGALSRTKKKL

TAOK2 (human) = TAOK2 (human) (UniProt Q9UL54)
Chain of TAOK2 (human) (Q9UL54 whole entry, looked up): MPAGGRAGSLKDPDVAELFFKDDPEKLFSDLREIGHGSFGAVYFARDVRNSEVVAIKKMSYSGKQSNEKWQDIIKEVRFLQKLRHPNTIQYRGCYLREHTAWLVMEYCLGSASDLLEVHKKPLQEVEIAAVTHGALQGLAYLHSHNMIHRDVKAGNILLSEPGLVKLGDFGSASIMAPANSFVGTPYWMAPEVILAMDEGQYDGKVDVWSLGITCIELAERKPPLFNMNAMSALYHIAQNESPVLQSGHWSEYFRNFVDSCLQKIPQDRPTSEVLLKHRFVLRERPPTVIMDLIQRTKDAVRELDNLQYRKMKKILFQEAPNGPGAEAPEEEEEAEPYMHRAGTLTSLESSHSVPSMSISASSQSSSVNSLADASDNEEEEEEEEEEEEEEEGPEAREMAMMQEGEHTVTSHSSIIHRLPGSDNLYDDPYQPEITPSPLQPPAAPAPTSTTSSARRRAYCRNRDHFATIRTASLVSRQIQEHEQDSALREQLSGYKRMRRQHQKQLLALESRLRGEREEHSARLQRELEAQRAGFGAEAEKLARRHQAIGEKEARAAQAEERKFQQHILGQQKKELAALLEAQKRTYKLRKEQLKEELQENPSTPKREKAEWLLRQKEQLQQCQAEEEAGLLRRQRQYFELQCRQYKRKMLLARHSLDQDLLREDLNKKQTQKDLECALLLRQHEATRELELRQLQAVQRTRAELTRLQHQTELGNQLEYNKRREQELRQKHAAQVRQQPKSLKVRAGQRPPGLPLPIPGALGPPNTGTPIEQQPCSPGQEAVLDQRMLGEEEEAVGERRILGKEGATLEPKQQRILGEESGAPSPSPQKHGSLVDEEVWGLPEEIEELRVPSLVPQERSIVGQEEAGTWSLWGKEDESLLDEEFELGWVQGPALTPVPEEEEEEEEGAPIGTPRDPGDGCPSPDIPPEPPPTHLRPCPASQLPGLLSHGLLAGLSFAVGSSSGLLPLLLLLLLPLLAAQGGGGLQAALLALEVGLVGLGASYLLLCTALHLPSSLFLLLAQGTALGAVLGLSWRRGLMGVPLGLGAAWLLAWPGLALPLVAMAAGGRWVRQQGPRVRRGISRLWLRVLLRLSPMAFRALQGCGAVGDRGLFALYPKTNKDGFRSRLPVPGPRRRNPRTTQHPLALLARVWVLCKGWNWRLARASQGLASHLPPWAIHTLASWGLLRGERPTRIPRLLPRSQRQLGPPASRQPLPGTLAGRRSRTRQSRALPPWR

ULK1 (human) = ULK1 (human) (UniProt O75385)

| Structure (SMILES) | residual activity (ABL1 (human)) [%] | residual activity (BRAF (human)) [%] | residual activity (CAMK2D (human)) [%] | residual activity (CDK5 CDK5R1 p25 (human)) [%] | residual activity (CHUK (human)) [%] | residual activity (CSK (human)) [%] | residual activity (CSNK1E (human)) [%] | residual activity (DYRK1B (human)) [%] | residual activity (DYRK4 (human)) [%] | residual activity (EPHB1 (human)) [%] | residual activity (IRAK4 (human)) [%] | residual activity (JAK2 JH1 JH2 (human)) [%] | residual activity (JAK3 JH1 JH2 (human)) [%] | residual activity (MAPK11 (human)) [%] | residual activity (MAPK12 (human)) [%] | residual activity (MAPK8 (human)) [%] | residual activity (MATK (human)) [%] | residual activity (OXSR1 (human)) [%] | residual activity (PAK7 (human)) [%] | residual activity (PBK (human)) [%] | also measured |
| --- | --- | --- | --- | --- | --- | --- | --- | --- | --- | --- | --- | --- | --- | --- | --- | --- | --- | --- | --- | --- | --- |
| O=C1NC(=O)C(c2c[nH]c3ccccc23)=C1c1c[nH]c2ccccc12 | 89.1 | 101 | 65 | 87.4 | 93.4 | 103 | 92.4 | 86.8 | 94.3 | 83.1 | 92 | 100 | 63 | 89 | 93 | 95.1 | 91.1 | 86.3 | 104 | 100 | residual activity (CSNK2A2 (human)): 92%; residual activity (MAPK9 (human)): 95.4%; residual activity (PKN2 (human)): 103%; residual activity (PRKCH (human)): 42%; residual activity (PRKCI (human)): 96.9%; residual activity (PRKD2 (human)): 87.4%; residual activity (PRKX (human)): 99.5%; residual activity (RPS6KA2 KD1 KD2 (human)): 11.5%; residual activity (RPS6KA3 KD1 KD2 (human)): 46.7%; residual activity (RPS6KA4 KD2 (human)): 87.4%; residual activity (SRPK1 (human)): 89.4%; residual activity (STK33 (human)): 97.7%; residual activity (TAOK2 (human)): 102%; residual activity (ULK1 (human)): 105% |
| Cn1cnc2cc3c(Nc4cccc(Br)c4)ncnc3cc21 | 32.6 | 94.2 | 92.2 | 88 | 89.7 | 88.1 | 90.3 | 98.1 | 97.5 | 72.2 | 89.1 | 103 | 106 | 85.9 | 92 | 96.9 | 85.9 | 94.6 | 86.1 | 102 | residual activity (CSNK2A2 (human)): 91.7%; residual activity (MAPK9 (human)): 92.3%; residual activity (PKN2 (human)): 85.7%; residual activity (PRKCH (human)): 81.2%; residual activity (PRKCI (human)): 100%; residual activity (PRKD2 (human)): 82.6%; residual activity (PRKX (human)): 101%; residual activity (RPS6KA2 KD1 KD2 (human)): 79.4%; residual activity (RPS6KA3 KD1 KD2 (human)): 105%; residual activity (RPS6KA4 KD2 (human)): 96.3%; residual activity (SRPK1 (human)): 96.1%; residual activity (STK33 (human)): 99.3%; residual activity (TAOK2 (human)): 103%; residual activity (ULK1 (human)): 113% |
| CCn1cnc2c(Nc3cccc(Cl)c3)nc(N[C@@H]3CCCC[C@@H]3N)nc21 | 94 | 93 | 89 | 5.16 | 91.7 | 85.4 | 92.1 | 94.4 | 95.1 | 56.6 | 94.8 | 104 | 99.6 | 94.1 | 96.6 | 97.6 | 88.3 | 92.3 | 64.7 | 105 | residual activity (MAPK9 (human)): 102%; residual activity (PKN2 (human)): 90.3%; residual activity (PRKCH (human)): 77.6%; residual activity (PRKCI (human)): 99.7%; residual activity (PRKX (human)): 102%; residual activity (RPS6KA2 KD1 KD2 (human)): 45.1%; residual activity (RPS6KA3 KD1 KD2 (human)): 64.1%; residual activity (RPS6KA4 KD2 (human)): 88.2%; residual activity (SRPK1 (human)): 94.2%; residual activity (STK33 (human)): 88.9%; residual activity (TAOK2 (human)): 101%; residual activity (ULK1 (human)): 74.5% |
| Cn1sc(=O)n(Cc2ccccc2)c1=O | 104 | 98.1 | 98.9 | 103 | 96.2 | 101 | 100 | 103 | 99.3 | 100 | 107 | 91.6 | 106 | 97.2 | 102 | 85.5 | 95.3 | 91.1 | 81.1 | 107 | residual activity (CSNK2A2 (human)): 98.5%; residual activity (PKN2 (human)): 97.2%; residual activity (PRKCH (human)): 89%; residual activity (PRKCI (human)): 95.2%; residual activity (PRKD2 (human)): 95.1%; residual activity (PRKX (human)): 102%; residual activity (RPS6KA2 KD1 KD2 (human)): 104%; residual activity (RPS6KA3 KD1 KD2 (human)): 97.5%; residual activity (RPS6KA4 KD2 (human)): 99%; residual activity (SRPK1 (human)): 89.8%; residual activity (STK33 (human)): 101%; residual activity (TAOK2 (human)): 91%; residual activity (ULK1 (human)): 98.9% |
